# Measured values taken from ChEMBL document CHEMBL1157692, “Probing the carbohydrate recognition domain of E-selectin: the importance of the acid orientation in sLex mimetics” (Bioorg Med Chem, 2010).
# Activity calls are given as the source filed them. The rule behind the calls is not given here.
# Target: T1, E-selectin (Homo sapiens) (UniProt P16581)
# T1 sequence (whole entry): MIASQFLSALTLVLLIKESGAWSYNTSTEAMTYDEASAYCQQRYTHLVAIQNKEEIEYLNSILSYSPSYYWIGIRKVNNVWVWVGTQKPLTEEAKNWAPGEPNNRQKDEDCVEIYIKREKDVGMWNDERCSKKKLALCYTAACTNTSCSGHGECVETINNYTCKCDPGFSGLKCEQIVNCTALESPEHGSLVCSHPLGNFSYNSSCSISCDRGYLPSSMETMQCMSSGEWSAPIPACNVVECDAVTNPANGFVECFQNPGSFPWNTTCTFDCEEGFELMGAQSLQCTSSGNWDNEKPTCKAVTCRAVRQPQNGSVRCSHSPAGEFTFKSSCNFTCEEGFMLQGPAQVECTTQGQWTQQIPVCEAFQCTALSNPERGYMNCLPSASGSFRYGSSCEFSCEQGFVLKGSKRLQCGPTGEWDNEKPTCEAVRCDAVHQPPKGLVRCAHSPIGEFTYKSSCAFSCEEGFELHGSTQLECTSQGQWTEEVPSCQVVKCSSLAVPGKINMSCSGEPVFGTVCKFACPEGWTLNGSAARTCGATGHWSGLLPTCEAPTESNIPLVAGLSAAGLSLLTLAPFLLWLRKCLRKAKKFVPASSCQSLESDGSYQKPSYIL
# Assay: Ratio of compound IC50 to sialyl Lewis X IC50 for E-selectin by ELISA
row,SMILES,Ratio IC50
1,C[C@@H]1O[C@@H](O[C@@H]2CCCC[C@H]2O[C@@H]2O[C@H](CO)[C@H](O)[C@H](O[C@@H](Cn3cc(Cn4nnc5c4CCCC5)nn3)C(=O)O)[C@H]2O)[C@@H](O)[C@H](O)[C@@H]1O,1.22
2,C[C@@H]1O[C@@H](O[C@@H]2CCCC[C@H]2O[C@@H]2O[C@H](CO)[C@H](O)[C@H](O[C@@H](Cn3ccnn3)C(=O)O)[C@H]2O)[C@@H](O)[C@H](O)[C@@H]1O,0.48
3,C[C@@H]1O[C@@H](O[C@@H]2CCCC[C@H]2O[C@@H]2O[C@H](CO)[C@H](O)[C@H](O[C@@H](CC3CCCCC3)C(=O)O)[C@H]2O)[C@@H](O)[C@H](O)[C@@H]1O,0.08
4,C[C@@H]1O[C@@H](O[C@@H]2CCCC[C@H]2O[C@@H]2O[C@H](CO)[C@H](O)[C@H](O[C@@H](CN=[N+]=[N-])C(=O)O)[C@H]2O)[C@@H](O)[C@H](O)[C@@H]1O,0.29

# More lines, now with the values ahead:
row,Ratio IC50,SMILES
1,1.03,C[C@@H]1O[C@@H](O[C@@H]2CCCC[C@H]2O[C@@H]2O[C@H](CO)[C@H](O)[C@H](O[C@@H](Cn3cc(Cc4ccccc4)nn3)C(=O)O)[C@H]2O)[C@@H](O)[C@H](O)[C@@H]1O
2,3.13,C[C@@H]1O[C@@H](O[C@@H]2CCCC[C@H]2O[C@@H]2O[C@H](CO)[C@H](O)[C@H](O[C@@H](Cn3cc(-c4cccnc4)nn3)C(=O)O)[C@H]2O)[C@@H](O)[C@H](O)[C@@H]1O
3,0.88,C[C@@H]1O[C@@H](O[C@@H]2CCCC[C@H]2O[C@@H]2O[C@H](CO)[C@H](O)[C@H](O[C@@H](Cn3cc(-c4ccsc4)nn3)C(=O)O)[C@H]2O)[C@@H](O)[C@H](O)[C@@H]1O
4,1.18,C[C@@H]1O[C@@H](O[C@@H]2CCCC[C@H]2O[C@@H]2O[C@H](CO)[C@H](O)[C@H](O[C@@H](Cn3cc(Cn4nnc5ccccc54)nn3)C(=O)O)[C@H]2O)[C@@H](O)[C@H](O)[C@@H]1O

# Target: T1, E-selectin (Homo sapiens)
# Assay: Ratio of sialyl Lewis X IC50 to compound IC50 for E-selectin by ELISA
row,Ratio IC50,SMILES
1,12,C[C@@H]1O[C@@H](O[C@@H]2CCCC[C@H]2O[C@@H]2O[C@H](CO)[C@H](O)[C@H](O[C@@H](CC3CCCCC3)C(=O)O)[C@H]2O)[C@@H](O)[C@H](O)[C@@H]1O

# Target: T1, E-selectin (Homo sapiens)
# Assay: Inhibition of CGP-69669A binding to E-selectin by ELISA
row,inhibition,SMILES
1,inactive,C[C@@H]1O[C@@H](O[C@@H]2CCCC[C@H]2O[C@@H]2O[C@H](CO)[C@H](O)[C@H](O[C@@H](Cn3cc(-c4cccc(C(F)(F)F)c4)nn3)C(=O)O)[C@H]2O)[C@@H](O)[C@H](O)[C@@H]1O
